Measurements: patent US9044481B2 (GlaxoSmithKline Biologicals S.A., priority 2009, dated 2015)

Tested on: C57BL/6 female mice
Experiment: Innate cytokines and chemokines in sera of vaccinated mice (SIV-p27 model, AS01B + TLR7-L liposomes)
Assay type: in vivo
Details: for IL-6 in sera / TNF-α in sera / chemokine MCP-1 in sera: after injection, DPPC liposomes with SIV-p27 and AS01B, vs AS01B reference group
From the text: We evaluated the capacity of TLR7 ligands to promote various aspects of the immune response in mice. Innate immunity was specifically investigated to conclude whether lipidated TLR7 compounds were able to induce innate chemokines and pro-inflammatory cytokines. This innate immune response provides the body with initial, non-specific protection against pathogens. Among these innate chemokines and cytokines, type I IFN is thought to be required for the programming of naïve CD8 T-cell with respect to survival, differentiation and memory development.
10.4 ml of lipidated-TLR7-L A1 at 10 mg/ml in chloroform were transferred into a round-bottomed glass vial. To this vial were added 18.4 ml of DPPC solubilised in chloroform at 100 mg/ml. 21.9 ml of lipidated-TLR7-L compound A3 solubilized at 5 mg/ml in chloroform were transferred into a round-bottomed glass vial. To this vial were added 20 ml of DPPC solubilised in chloroform at 100 mg/ml. Chloroform was evaporated in a Büchi Rotavapor under slow decrease of pressure. The obtained film was further dessicated at least overnight in a dessicator under vacuum. After that, the lipid film was slowly hydrated on an orbital shaker (maximal speed: 250 rpm) using 50 mM PO4-100 mM NaCl, pH 7 buffer pre-heated at 60° C.
After completion of resuspension, a swelling step was carried out in order to further increase the phospholipid hydration, it consists of incubating the preparation at room temperature. The suspension was then pre-homogenized using a rotor-stator homogenizer (X620 CAT) for 12 min at 8000 rpm.
Microfluidization was then carried out using a microfluidizer (Model 110S-Serial 90181-Microfluidics Corporation) at 6 bars while keeping the microfluidization chamber at about 40° C. Sterile filtration was achieved on a PES filter (GD/X 0.2 μm, 25 mm, Whatman).
Lipidated molecules A3 and A1 were evaluated in vivo. The SIV-p27-containing formulations summarized in Table 1 were used to vaccinate 6-8 week old C57BL/6 female mice (10/group). The mice received two intramuscular injections of 50 μl, 14 days apart and were bled at different time points after prime and boost as illustrated in FIG. 1.
The innate and adaptive immune responses induced by the formulations containing the TLR7 agonists and the proprietary AS01B adjuvant (QS21+MPL) were also compared to the one induced by the corresponding AS01B-containing formulations and empty DPPC liposomes.

SMILES	IL-6 in sera	TNF-α in sera	chemokine MCP-1 in sera	relative potency in enhancing inflammatory cytokines TNF-α and IL-6 (comparison of A1 and A3 in DPPC liposome formulations)
CCCCCCCCCCCCCCCC(=O)OC[C@H](COP(=O)(O)OCCN1CCC(Cn2c(O)nc3c(N)nc(OCCCC)nc32)CC1)OC(=O)CCCCCCCCCCCCCCC [Compound A1]	enhanced	enhanced	enhanced	more potent than A3
CCCCCCCCCCCCCCCC(=O)OC[C@H](COP(=O)(O)N1CCN(CCn2c(O)nc3c(N)nc(OCCCC)nc32)CC1)OC(=O)CCCCCCCCCCCCCCC [Compound A3, 6-Amino-2-butoxy-9-[1-(1,2-dipalmitoyl-sn-glycero-3-phosphoramido)-4-piperazinylethyl]-8-hydroxypurine]	enhanced	enhanced	enhanced	–
